Laboratory results from patent US7179627B2, “Cyclooxygenase variants and methods of use” (Brigham Young University, priority 2001, dated 2007).
Like-named read-outs stand apart in the source and are kept apart here.

How the values were obtained:
[1] = active breakdown product of dipyrone; cited from earlier work
mouse COX-1 = molecular target: T1, mouse COX-1 (Mus musculus, UniProt P22437); assay: COX activity (PGE2 formation by RIA) in insect cells expressing COX-1, drug inhibition; format: cell-based
T1 construct: expressed in transfected cells; host or cells: Sf9 insect cells infected with recombinant baculovirus
T1 sequence (P22437 27-602): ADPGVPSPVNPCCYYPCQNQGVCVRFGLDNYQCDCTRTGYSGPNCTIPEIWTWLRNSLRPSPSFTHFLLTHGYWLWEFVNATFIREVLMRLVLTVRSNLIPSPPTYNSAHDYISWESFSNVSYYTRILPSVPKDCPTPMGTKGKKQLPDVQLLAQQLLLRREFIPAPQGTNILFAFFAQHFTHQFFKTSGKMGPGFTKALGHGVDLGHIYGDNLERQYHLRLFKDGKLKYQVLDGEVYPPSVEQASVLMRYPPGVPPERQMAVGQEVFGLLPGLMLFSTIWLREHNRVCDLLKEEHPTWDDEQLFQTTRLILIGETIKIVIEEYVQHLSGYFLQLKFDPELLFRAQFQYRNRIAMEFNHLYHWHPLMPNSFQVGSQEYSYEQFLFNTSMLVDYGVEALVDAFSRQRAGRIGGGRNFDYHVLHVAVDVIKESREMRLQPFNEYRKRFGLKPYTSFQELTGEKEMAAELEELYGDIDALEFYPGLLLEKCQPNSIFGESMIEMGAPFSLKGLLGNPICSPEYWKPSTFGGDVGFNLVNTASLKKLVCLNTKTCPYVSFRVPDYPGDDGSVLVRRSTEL
Experimental: (§1) Both COX-3 and PCOX-1a were cloned into the baculovirus expression vector pBlueBac 4.5/V5-His (Invitrogen). Sf9 cells (˜1×10^6) were infected with viral stocks at a multiplicity of infection (MOI) of 3 for expression of COX-3, PCOX-1a, mouse COX-1 and mouse COX-2.
(§2) Sf9 cells were infected with a high titer viral stock at a MOI of3 and cultured for 48 hr. Infected cells expressing COX-3 were aliquoted into tubes (˜1.5×10^6 cells) and centrifuged (1000×g, 5 min). The supernatant was discarded and the cell pellet resuspended in 100 μl serum-free media containing the drug to be tested and preincubated at room temperature for 30 minutes. Arachidonic acid (100 μl, final concentration 5 or 30 μM) was then added, mixed and incubated (37° C., 10 min). Samples were then centrifuged and 100 μl of the supernatant was assayed for COX activity by RIA for PGE2. Assays were performed multiple times in triplicate. Inhibition curves were constructed and IC50 values were determined using Prism® 3.0 (GraphPad, San Diego).

mouse COX-2 = molecular target: T2, mouse COX-2 (Mus musculus, UniProt Q05769); assay: COX activity (PGE2 formation by RIA) in insect cells expressing COX-2, drug inhibition; format: cell-based
T2 construct: expressed in transfected cells; host or cells: Sf9 insect cells infected with recombinant baculovirus
T2 sequence (Q05769 18-604): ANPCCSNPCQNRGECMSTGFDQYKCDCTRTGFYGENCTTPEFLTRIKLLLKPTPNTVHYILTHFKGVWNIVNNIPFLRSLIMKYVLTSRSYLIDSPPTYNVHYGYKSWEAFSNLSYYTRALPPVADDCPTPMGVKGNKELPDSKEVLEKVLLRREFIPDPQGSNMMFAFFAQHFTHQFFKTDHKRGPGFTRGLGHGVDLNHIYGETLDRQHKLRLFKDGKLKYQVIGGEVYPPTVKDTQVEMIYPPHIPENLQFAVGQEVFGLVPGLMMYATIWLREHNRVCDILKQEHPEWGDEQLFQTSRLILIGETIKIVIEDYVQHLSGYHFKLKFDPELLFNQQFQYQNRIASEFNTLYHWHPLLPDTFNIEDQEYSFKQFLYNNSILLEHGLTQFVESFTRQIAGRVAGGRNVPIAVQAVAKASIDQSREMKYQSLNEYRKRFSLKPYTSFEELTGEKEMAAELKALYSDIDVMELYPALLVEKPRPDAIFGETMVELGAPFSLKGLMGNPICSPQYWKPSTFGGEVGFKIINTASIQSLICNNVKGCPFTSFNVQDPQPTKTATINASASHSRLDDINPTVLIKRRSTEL
Experimental: as §1
as §2, with “Arachidonic acid (100 μl, final concentration 5 or 30 μM) was then added, mixed and incubated (37° C., 10 min).” left out

COX-3 [2] = molecular target: T3, COX-3 (Canis lupus familiaris, UniProt Q8HZR1, E597Q); assay: COX activity (PGE2 formation by RIA) in insect cells expressing COX-3, drug inhibition; format: cell-based, canine
T3 construct: V5-His (vector name only); expressed in transfected cells; host or cells: Sf9 insect cells infected with recombinant baculovirus (pBlueBac 4.5/V5-His)
T3 sequence (Q8HZR1 1-633 isoform Q8HZR1-2 E627Q): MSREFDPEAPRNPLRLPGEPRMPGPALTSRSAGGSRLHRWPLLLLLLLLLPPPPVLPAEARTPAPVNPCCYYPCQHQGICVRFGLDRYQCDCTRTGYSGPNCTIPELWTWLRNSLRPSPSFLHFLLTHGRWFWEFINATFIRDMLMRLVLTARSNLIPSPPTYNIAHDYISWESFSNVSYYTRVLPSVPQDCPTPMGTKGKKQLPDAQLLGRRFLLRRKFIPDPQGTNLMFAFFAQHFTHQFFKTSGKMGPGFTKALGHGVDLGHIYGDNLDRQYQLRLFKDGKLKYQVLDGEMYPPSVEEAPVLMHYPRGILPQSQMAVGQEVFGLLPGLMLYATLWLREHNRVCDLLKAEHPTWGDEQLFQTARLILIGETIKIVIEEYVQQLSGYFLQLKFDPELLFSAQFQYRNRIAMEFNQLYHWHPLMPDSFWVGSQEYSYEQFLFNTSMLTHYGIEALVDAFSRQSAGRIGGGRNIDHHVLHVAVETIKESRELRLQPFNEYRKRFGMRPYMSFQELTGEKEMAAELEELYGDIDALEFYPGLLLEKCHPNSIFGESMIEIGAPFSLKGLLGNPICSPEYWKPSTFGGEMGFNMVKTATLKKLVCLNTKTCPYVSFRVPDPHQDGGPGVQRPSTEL
Experimental: as §1
as §2, with “Arachidonic acid (100 μl, final concentration 5 or 30 μM) was then added, mixed and incubated (37° C., 10 min).” left out

COX-3 [3] = assay: COX activity of intact tunicamycin-treated insect cells by RIA; format: cell-based, canine; details: 10 μg/ml, harvested after 48 hr
Experimental: Tunicamycin was added to a final concentration of 10 μg/ml to insect cells 1 hr after infection with baculovirus constructs. The cells were cultured and harvested after 48 hr. COX activity of intact cells was determined by radioimmunoassay (RIA) (Salmon, 1978). COX activity in intact Tu-treated cells was compared with activity in untreated cells infected with the appropriate virus (MOI=3).

[4] = 30 μM arachidonic acid, insect cells, PGE2 by RIA, read-out: IC50, μM COX-1
[5] = 30 μM arachidonic acid, insect cells, PGE2 by RIA, read-out: IC50, μM COX-2
[6] = substrate conditions of 30 μM arachidonic acid, read-out: IC50 value for COX-3
[7] = 30 μM arachidonic acid, insect cells, PGE2 by RIA, read-out: IC50, μM COX-3

CNc1c(C)n(C)n(-c2ccccc2)c1=O [4-methylaminoantipyrine]
concentration reached in plasma [1]: 104 µM | concentration reached in the central nervous system [1]: 86 µM

Cc1c(N(C)C)c(=O)n(-c2ccccc2)n1C [Aminopyrine, 4-dimethylaminoantipyrine]
IC50 (mouse COX-1; [4]): > 1000 µM | IC50 (mouse COX-2; [5]): > 1000 µM | IC50 (COX-3 [2]; [6]): 688 µM

Cc1cc(=O)n(-c2ccccc2)n1C [Antipyrine]
IC50 (mouse COX-1): > 1000 µM | IC50 (mouse COX-2): > 1000 µM | IC50 (COX-3 [2]; IC50, μM COX-3, 30 mM arachidonic acid, insect cells, PGE2 by RIA): 863 µM | IC50 (COX-3 [2]; IC50 value for COX-3, substrate conditions of 30 μM arachidonic acid): 862 µM

CC(=O)Oc1ccccc1C(=O)O [Aspirin]
IC50 (COX-3 [2]; [7]): 3.1 µM

Cn1c(=O)c2c(ncn2C)n(C)c1=O [Caffeine]
IC50 (mouse COX-1; [4]): > 1000 µM | IC50 (mouse COX-2; [5]): > 1000 µM | IC50 (COX-3 [2]; [7]): > 1000 µM

O=C(O)Cc1ccccc1Nc1c(Cl)cccc1Cl [Diclofenac]
IC50 (mouse COX-1): 0.035 µM

Cc1c(N(C)CS(=O)(=O)[O-])c(=O)n(-c2ccccc2)n1C.[Na+] [Dipyrone]
concentration inhibiting COX-1, fold higher than COX-3 IC50 (mouse COX-1; 30 μM arachidonic acid (FIG. 13, panel D)): 6.6 fold | IC50 (mouse COX-1; [4]): 350 µM | IC50 (mouse COX-2; [5]): > 1000 µM | inhibition of COX-2 (mouse COX-2; below 1 mM): No detectable inhibition | IC50 (COX-3 [2]; [6]): 52 µM

CCOc1ccc(NC(C)=O)cc1 [Phenacetin]
IC50 (mouse COX-1; [4]): > 1000 µM | IC50 (mouse COX-2; [5]): > 1000 µM | IC50 (COX-3 [2]; [6]): 102 µM

O=C1CCC(N2C(=O)c3ccccc3C2=O)C(=O)N1 (stereo not drawn) [Thalidomide]
IC50 (mouse COX-1; [4]): > 1000 µM | IC50 (mouse COX-2; [5]): > 1000 µM | IC50 (COX-3 [2]; [7]): > 1000 µM

O=C([O-])c1ccccc1O.[Na+] [sodium salicylate]
sensitivity of COX-3 to the drug compared with COX-1 or COX-2 (COX-3 [2]): less sensitive

tunicamycin
COX activity in cells treated with tunicamycin (COX-3 [3]): significantly decreased or abolished
